Like-named read-outs stand apart in the source and are kept apart here.
How the values were obtained:
[1] = Aqueous slurry pH (10% slurry, 25 C); format: physicochemical
Experimental: Various inventive and comparative compounds were formulated with three separate toilet bar bases, 1, 2, and 3 at the 10% by wt. level and their aqueous slurry pH (see method below) was compared to a control shown in table 1. Inventive latent acidifiers are designated “I” and comparative compounds are designated “C”. The bar bases were formulated by blending all ingredients except the latent acidifier for about 30-40 minutes at temperatures of 180-230 F. After that, the latent acidifier is added and mixed for another few minutes until a uniform mixture is obtained. […] The latent acidifier could also be added in the chip mixer after the batch has been cooled and solidified in a spray dryer or a chill roll. This is followed by extrusion and stamping into a bar.
Method for Measuring Aqueous Slurry pH
Nine grams of the base formula and one gram of the latent acidifier (or a comparative compound) were blended together with 90 g of water to create a 10% slurry. The pH of the slurry was then measured at 25 C.

[2] = pH of 1% by wt. aqueous solutions; format: physicochemical
[3] = compound at 10% by wt. in toilet bar Base 1, 10% slurry, 25 C
[4] = compound at 10% by wt. in toilet bar Base 2, 10% slurry, 25 C
[5] = compound at 10% by wt. in toilet bar Base 3, 10% slurry, 25 C
[6] = 1% by wt. aqueous solution of the compound

[Ca+2].[Cl-].[Cl-] [Calcium Chloride]
Aqueous slurry pH, Base 1 [1]: 4.2
Aqueous slurry pH, Base 2 [1]: 6.9
Aqueous slurry pH, Base 3 [1]: 9.8
pH of 1% Solution ([2]; pH 1): 9.3

O=[N+]([O-])[O-].O=[N+]([O-])[O-].[Ca+2] [Calcium Nitrate]
Aqueous slurry pH, Base 1 [1]: 5.2
Aqueous slurry pH, Base 2 [1]: 8.6
Aqueous slurry pH, Base 3 [1]: 10.1
pH of 1% Solution ([2]; pH 1): 5.3

O=C([O-])O.[Na+] [Sodium Bicarbonate, reference compound]
Aqueous slurry pH, Base 1 [1, 3]: 7.5
Aqueous slurry pH, Base 2 [1, 4]: 8.8
Aqueous slurry pH, Base 3 [1, 5]: 9.4
pH of 1% Solution [2, 6]: 8.3

CC(=O)[O-].CC(=O)[O-].[Ca+2] [Calcium Acetate]
Aqueous slurry pH, Base 1 [1]: 5.2
Aqueous slurry pH, Base 2 [1]: 8.1
Aqueous slurry pH, Base 3 [1]: 10.1
pH of 1% Solution ([2]; pH 1): 8.2

O=S(=O)([O-])[O-].[Ca+2] [Calcium Sulfate]
Aqueous slurry pH of bars [1]: significant drop in pH
Aqueous slurry pH, Base 1 [1]: 4.9
Aqueous slurry pH, Base 2 [1]: 8.8
Aqueous slurry pH, Base 3 [1]: 10.2
Latent acidification effect [1]: latent acidification effect

O=S(=O)([O-])[O-].[Na+].[Na+] [Sodium Sulfate, reference compound]
Aqueous slurry pH, Base 1 [1]: 6.9
Aqueous slurry pH, Base 2 [1]: 8.9
Aqueous slurry pH, Base 3 [1]: 10.3
pH of 1% Solution ([2]; pH 1): 9.1

[Cl-].[Cl-].[Mg+2] [Magnesium Chloride]
Aqueous slurry pH, Base 1 [1]: 5.9
Aqueous slurry pH, Base 2 [1]: 8.4
Aqueous slurry pH, Base 3 [1]: 10.0
pH of 1% Solution ([2]; pH 1): 5.2

Cl.N [Ammonium Chloride]
Aqueous slurry pH, Base 1 [1, 3]: 6.5
Aqueous slurry pH, Base 2 [1, 4]: 8.7
Aqueous slurry pH, Base 3 [1, 5]: 9.1
pH of 1% Solution [2, 6]: 4.9

[Cl-].[Na+] [Sodium Chloride, reference compound]
Aqueous slurry pH, Base 1 [1, 3]: 6.7
Aqueous slurry pH, Base 2 [1, 4]: 8.7
Aqueous slurry pH, Base 3 [1, 5]: 10.1
pH of 1% Solution [2, 6]: 8.1

O=S(=O)([O-])[O-].O=S(=O)([O-])[O-].O=S(=O)([O-])[O-].[Fe+3].[Fe+3] [Ferric Sulfate]
Aqueous slurry pH, Base 1 [1]: 1.5
Aqueous slurry pH, Base 2 [1]: 7.5
Aqueous slurry pH, Base 3 [1]: 9.1
pH of 1% Solution ([2]; pH 1): 1.7

Calcium Phosphate
Aqueous slurry pH, Base 1 [1]: 5.4
Aqueous slurry pH, Base 2 [1]: 7.2
Aqueous slurry pH, Base 3 [1]: 8.6
pH of 1% Solution ([2]; pH 1): 3.7

N.N.N.O=P(O)(O)O [Ammonium Phosphate]
Aqueous slurry pH, Base 1 [1]: 6.1
Aqueous slurry pH, Base 2 [1]: 7.6
Aqueous slurry pH, Base 3 [1]: 8.7
pH of 1% Solution ([2]; pH 1): 4.2

N.N.O=S(=O)(O)O [Ammonium Sulfate]
Aqueous slurry pH, Base 1 [1, 3]: 6.7
Aqueous slurry pH, Base 2 [1, 4]: 8.9
Aqueous slurry pH, Base 3 [1, 5]: 9.4
pH of 1% Solution [2, 6]: 5.0

O=C([O-])[O-].[Ca+2] [Calcium Carbonate, reference compound]
Aqueous slurry pH, Base 1 [1]: 7.0
Aqueous slurry pH, Base 2 [1]: 9.0
Aqueous slurry pH, Base 3 [1]: 10.6
pH of 1% Solution ([2]; pH 1): 9.2

CC(=O)O.N [Ammonium Acetate]
Aqueous slurry pH, Base 1 [1]: 6.8
Aqueous slurry pH, Base 2 [1]: 8.9
Aqueous slurry pH, Base 3 [1]: 9.5
pH of 1% Solution ([2]; pH 1): 6.9

O=P(O)(O)O [Sodium Phosphate, reference compound]
Aqueous slurry pH, Base 1 [1]: 7.2
Aqueous slurry pH, Base 2 [1]: 8.9
Aqueous slurry pH, Base 3 [1]: 10.2
pH of 1% Solution ([2]; pH 1): 9.1

O=S(=O)([O-])[O-].[Mg+2] [Magnesium Sulfate]
Aqueous slurry pH, Base 1 [1]: 6.2
Aqueous slurry pH, Base 2 [1]: 8.6
Aqueous slurry pH, Base 3 [1]: 10.2
pH of 1% Solution ([2]; pH 1): 6.5

[Ca+2].[OH-].[OH-] [Calcium Hydroxide, reference compound]
Aqueous slurry pH, Base 1 [1]: 11.9
Aqueous slurry pH, Base 2 [1]: 12.1
Aqueous slurry pH, Base 3 [1]: 11.9
pH of 1% Solution ([2]; pH 1): 11.8

Reference: US6809070B2, “Toilet bar having a latent acidifier” (Unilever Home & Personal Care USA, division of Conopco, Inc., priority 2001, dated 2004)
